How the values were obtained:
[1] = system: inflammatory cytokines (IL-6, IL-12 and TNF-α) in the serum; test: Serum inflammatory cytokines by ELISA after single intraperitoneal administration of ODN to mice; assay type: in vivo; conditions: Balb/c mouse; for IL-6 concentration in the serum / IL-12 concentration in the serum / TNF-α concentration in the serum: 10 nmol ODN in 400 μl saline, 2 hours later, mean; for Induction of inflammatory cytokines (in words): 10 nmol ODN, serum 2 hours later
Experimental: 10 nmol of each of GATC-dA (sequence containing a GATC sequence), GATC-m^6A (sequence containing a Gm^6ATC sequence), CpG-ODN1668 (sequence containing a non-methylated CpG sequence) and GpC-ODN1720 (sequence containing a […]) shown in Table 1 was collected, and dissolved in 400 μl of a physiological saline solution. The resulting solution was intraperitoneally administered to a Balb/c mouse (male, 6 weeks old; Sankyo Labo-Service). Two hours later, concentrations of inflammatory cytokines (IL-6, IL-12 and TNF-α) in the serum were measured by an enzyme-linked immunosorbent assay (ELISA; AN'ALIZA, Genzyme TECHNE corp.).
Two hours after the administration, the blood was collected from the heart of the mouse, and allowed to stand overnight at 4° C. The serum was collected therefrom by centrifugation (20,000 g, 20 minutes, 4° C.).
By the way, the results shown in FIGS. 1 to 3 are expressed in terms of a mean value±standard deviation. In the graphs, two asterisks indicate “P<0.01”, and three asterisks “P<0.005 (n=3 (IL-12), 4 (IL-6, TNF-α)))”.

[2] = system: inflammatory cytokines in the serum of the mouse; test: Serum inflammatory cytokines by ELISA after simultaneous administration of Gm^6ATC sequence and non-methylated CpG sequence to mice; assay type: in vivo; conditions: 5 nmol CpG-ODN1668 alone or mixed with equimolar second ODN, 400 μl saline, 2 hours later, mean (n=4)
Experimental: Accordingly, the Gm^6ATC sequence and CpG-ODN1668 containing the non-methylated sequence were simultaneously administered to a mouse to confirm an effect of inducting inflammatory cytokines. Regarding the doses of Gm^6ATC, GATC-dA and CpG-ODN1668, 5 nmol of CpG-ODN1668 was mixed with an equimolar amount of Gm^6ATC or GATC-dA, and the mixture was dissolved in 400 μl of a physiological saline solution. The resulting solution was administered to a mouse. Two hours later, the inflammatory cytokines in the serum of the mouse were measured by ELISA to confirm induction amounts.
The results shown in FIGS. 4 to 6 are expressed in terms of a mean value±standard deviation (n=4). In the graphs, one asterisk indicates “P<0.05”, two asterisks “P<0.01” and three asterisks “P<0.005”.

CpG-ODN1668: phosphothioate-stabilized oligonucleotide, non-methylated CpG motif, TCCATGACGTTCCTGATGCT (DNA TCCATGACGTTCCTGATGCT; phosphorothioate backbone, chemistry not fully specified)
IL-6 concentration in the serum [1]: 2100 pg/mL | IL-12 concentration in the serum [1]: 1000 pg/mL | TNF-α concentration in the serum [1]: 1500 pg/mL | Induction of inflammatory cytokines (in words) [1]: very strong inflammatory cytokines were induced | IL-6 concentration in the serum [2]: 530 pg/mL | IL-12 concentration in the serum [2]: 730 pg/mL | TNF-α concentration in the serum [2]: 760 pg/mL

GATC-dA: phosphothioate-stabilized oligonucleotide, non-m^6A motif, TCCATGATCTTCCTGATGCT (DNA TCCATGATCTTCCTGATGCT; phosphorothioate backbone, chemistry not fully specified)
IL-6 concentration in the serum [1]: 14 pg/mL | IL-12 concentration in the serum [1]: 48 pg/mL | TNF-α concentration in the serum [1]: 92 pg/mL

GpC-ODN1720: phosphothioate-stabilized oligonucleotide, non CpG motif, CC ATG AGC TTC CTG ATG CT (DNA CCATGAGCTTCCTGATGCT; phosphorothioate backbone, chemistry not fully specified)
IL-6 concentration in the serum [1]: 28 pg/mL | IL-12 concentration in the serum [1]: 33 pg/mL | TNF-α concentration in the serum [1]: 47 pg/mL | Induction of inflammatory cytokines (in words) [1]: little induced

From patent US20070161585A1, “Immunopotentiator and method for enhancing immunoactivity using the same” (priority 2003, published 2007)
